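96-well plates; 48 h exposure; 5 concentrations. Endpoints by linear interpolation between flanking doses. Not reached: highest tested concentration assigned. The concentration for 50% growth inhibition is given as GI50.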 The source made the active and inactive calls. Rule as the data show it: active = GI50 up to about 1.1 µM and inactive = higher. Residues, ends and D or L forms follow the SMILES beside them.
What was measured:
Assay in all cases: DTP human tumour cell line panel, 48 h
[1] = system: SR
[2] = system: U-251
[3] = system: HOP-92
[4] = system: TK-10
[5] = system: CAKI-1
[6] = system: HCT-116
[7] = system: SNB-75
[8] = system: PC-3
[9] = system: SN12C
[10] = system: ACHN
[11] = system: HT-29
[12] = system: SF-295
[13] = system: SF-268
[14] = system: A549
[15] = system: OVCAR-8
[16] = system: SNB-19
[17] = system: Malme-3M
[18] = system: HCC 2998
[19] = system: RXF 393
[20] = system: NCI-H522

SMILES | GI50 [1] | GI50 [2] | GI50 [3] | GI50 [4] | GI50 [5] | GI50 [6] | GI50 [7] | GI50 [8] | GI50 [9] | GI50 [10] | GI50 [11] | GI50 [12] | GI50 [13] | GI50 [14] | GI50 [15] | GI50 [16] | GI50 [17] | GI50 [18] | GI50 [19] | GI50 [20]
O=c1n(-c2ccccc2)c(=O)n2n1C1Cc3ccccc3C12 (stereo not given) | > 100 µM (inactive) | > 100 µM (inactive) | > 100 µM (inactive) | > 100 µM (inactive) | > 100 µM (inactive) | > 100 µM (inactive) | 69.5 µM (inactive) | > 100 µM (inactive) | > 100 µM (inactive) | > 100 µM (inactive) | > 100 µM (inactive) | > 100 µM (inactive) | > 100 µM (inactive) | > 100 µM (inactive) | > 100 µM (inactive) | > 100 µM (inactive) | – | – | – | –
CCOC(=O)C#Cc1ccccc1 | 2.05 µM (inactive) | 11.1 µM (inactive) | 18.3 µM (inactive) | 21.6 µM (inactive) | 14.4 µM (inactive) | 1.91 µM (inactive) | – | 8.95 µM (inactive) | 5.55 µM (inactive) | 14.6 µM (inactive) | 7.24 µM (inactive) | 13.5 µM (inactive) | – | 13.2 µM (inactive) | 8.75 µM (inactive) | 14.8 µM (inactive) | 13.1 µM (inactive) | 12.2 µM (inactive) | – | –
N#C[C@H](C(=O)c1ccccc1F)c1nc2ccccc2[nH]1 | 58.9 µM (inactive) | > 100 µM (inactive) | > 100 µM (inactive) | > 100 µM (inactive) | > 100 µM (inactive) | > 100 µM (inactive) | 82.6 µM (inactive) | > 100 µM (inactive) | > 100 µM (inactive) | > 100 µM (inactive) | 69.2 µM (inactive) | > 100 µM (inactive) | > 100 µM (inactive) | > 100 µM (inactive) | > 100 µM (inactive) | > 100 µM (inactive) | – | > 100 µM (inactive) | > 100 µM (inactive) | –
CCC(C)C(NC(=O)C1CCCN1)C(=O)NC(C(=O)NCC(=O)NC(CC(N)=O)C(=O)NC(CC(C)C)C(=O)NC(CC(C)C)C(=O)NC(CCCCN)C(N)=O)C(C)C (stereo not given) (H-PIVGNLLK-NH2; configuration not given here) | > 75 µM (inactive) | > 75 µM (inactive) | > 75 µM (inactive) | > 75 µM (inactive) | > 75 µM (inactive) | > 75 µM (inactive) | – | > 75 µM (inactive) | > 75 µM (inactive) | > 75 µM (inactive) | > 75 µM (inactive) | > 75 µM (inactive) | > 75 µM (inactive) | > 75 µM (inactive) | > 75 µM (inactive) | > 75 µM (inactive) | > 75 µM (inactive) | – | – | > 75 µM (inactive)
CCC[C@@H](O)C[C@@H]1CCC[C@H](C[C@@H](O)CC)N1C | > 100 µM (inactive) | > 100 µM (inactive) | < 0.01 µM (active) | > 100 µM (inactive) | > 100 µM (inactive) | > 100 µM (inactive) | – | > 100 µM (inactive) | > 100 µM (inactive) | > 100 µM (inactive) | > 100 µM (inactive) | > 100 µM (inactive) | 17.9 µM (inactive) | > 100 µM (inactive) | > 100 µM (inactive) | > 100 µM (inactive) | – | > 100 µM (inactive) | – | 11.7 µM (inactive)
c1ccc2c(c1)CCc1c-2n(CCN2CCCCC2)c2ccccc12 | 8.81 µM (inactive) | 14.3 µM (inactive) | 16.4 µM (inactive) | 19.1 µM (inactive) | 16.6 µM (inactive) | 12.5 µM (inactive) | 16.4 µM (inactive) | 11.8 µM (inactive) | 17.3 µM (inactive) | 18.7 µM (inactive) | 8.2 µM (inactive) | 16.9 µM (inactive) | 21.2 µM (inactive) | 18.7 µM (inactive) | 17.7 µM (inactive) | 26 µM (inactive) | 24.7 µM (inactive) | 13.1 µM (inactive) | – | 13.5 µM (inactive)
C=C1C(=O)OC2CC3(C)CCCC(C)C3=CC12 (stereo not given) | 2.14 µM (inactive) | 7 µM (inactive) | 2.64 µM (inactive) | 2.46 µM (inactive) | 3.09 µM (inactive) | 3.91 µM (inactive) | 2.64 µM (inactive) | 14.8 µM (inactive) | 3.3 µM (inactive) | 2.61 µM (inactive) | 3.3 µM (inactive) | 13.1 µM (inactive) | 6.92 µM (inactive) | 12.6 µM (inactive) | 12.8 µM (inactive) | 13.1 µM (inactive) | 3.9 µM (inactive) | 3.79 µM (inactive) | – | 1.51 µM (inactive)
C=C(C)[C@@H]1CC[C@]2(C(=O)O)CC[C@]3(C)[C@H](CCC4[C@@]5(C)CC[C@H](C(=O)/C=C/c6ccc(O)c(O)c6)C(C)(C)[C@@H]5CC[C@]43C)[C@@H]12 (stereo not given in full) | 3.4 µM (inactive) | – | – | 11 µM (inactive) | 3.66 µM (inactive) | 2.77 µM (inactive) | 0.0513 µM (active) | 4.32 µM (inactive) | 5.02 µM (inactive) | 2.72 µM (inactive) | – | 3.75 µM (inactive) | 5.28 µM (inactive) | 2.58 µM (inactive) | 4.46 µM (inactive) | 11.9 µM (inactive) | – | 1.88 µM (inactive) | 6 µM (inactive) | –
Cc1c(C(=O)C(=O)c2ccccc2)c(C)c(C(=O)C(=O)c2ccccc2)c(C)c1C(=O)C(=O)c1ccccc1 | > 100 µM (inactive) | > 100 µM (inactive) | – | > 100 µM (inactive) | – | > 100 µM (inactive) | > 100 µM (inactive) | > 100 µM (inactive) | > 100 µM (inactive) | > 100 µM (inactive) | > 100 µM (inactive) | > 100 µM (inactive) | > 100 µM (inactive) | > 100 µM (inactive) | > 100 µM (inactive) | > 100 µM (inactive) | – | > 100 µM (inactive) | – | > 100 µM (inactive)
COC(=O)C(Cc1ccccc1)NP(=O)(O)OCC1OC(n2ccc(N)nc2=O)C(O)C1O (stereo not given) | 66.1 µM (inactive) | > 100 µM (inactive) | > 100 µM (inactive) | 40.8 µM (inactive) | > 100 µM (inactive) | > 100 µM (inactive) | > 100 µM (inactive) | > 100 µM (inactive) | > 100 µM (inactive) | > 100 µM (inactive) | > 100 µM (inactive) | > 100 µM (inactive) | > 100 µM (inactive) | > 100 µM (inactive) | > 100 µM (inactive) | > 100 µM (inactive) | > 100 µM (inactive) | > 100 µM (inactive) | – | > 100 µM (inactive)
CC1CN=C(N(C(=O)Nc2ccccc2)c2ccccc2)S1 (stereo not given) | 27.2 µM (inactive) | 37.7 µM (inactive) | – | 20.6 µM (inactive) | 27 µM (inactive) | 39.7 µM (inactive) | 13.3 µM (inactive) | 36.6 µM (inactive) | 25.2 µM (inactive) | 37.2 µM (inactive) | 17.9 µM (inactive) | 37.9 µM (inactive) | 20.6 µM (inactive) | 33.4 µM (inactive) | 40.3 µM (inactive) | 88.1 µM (inactive) | 23 µM (inactive) | 35.9 µM (inactive) | – | –
Cc1nn(-c2ccccc2)c2nc3ccc(Cl)cc3c(-c3ccccc3)c12 | > 100 µM (inactive) | > 100 µM (inactive) | > 100 µM (inactive) | > 100 µM (inactive) | – | > 100 µM (inactive) | > 100 µM (inactive) | > 100 µM (inactive) | > 100 µM (inactive) | > 100 µM (inactive) | > 100 µM (inactive) | > 100 µM (inactive) | > 100 µM (inactive) | > 100 µM (inactive) | > 100 µM (inactive) | > 100 µM (inactive) | > 100 µM (inactive) | > 100 µM (inactive) | – | > 100 µM (inactive)
O=C(Cn1c(-c2ccccc2)cc2ccccc21)N1CCCC1 | > 100 µM (inactive) | – | > 100 µM (inactive) | – | – | > 100 µM (inactive) | > 100 µM (inactive) | > 100 µM (inactive) | > 100 µM (inactive) | > 100 µM (inactive) | > 100 µM (inactive) | > 100 µM (inactive) | > 100 µM (inactive) | > 100 µM (inactive) | > 100 µM (inactive) | > 100 µM (inactive) | > 100 µM (inactive) | – | – | > 100 µM (inactive)
O=C(Cn1c(C(=O)/C=C/c2ccco2)nc2ccccc21)c1ccc(Cl)cc1 | 3.03 µM (inactive) | 23.8 µM (inactive) | 26.4 µM (inactive) | 25.1 µM (inactive) | – | 16.3 µM (inactive) | 29 µM (inactive) | 15.8 µM (inactive) | 15.2 µM (inactive) | 26.2 µM (inactive) | 26.1 µM (inactive) | – | 9.71 µM (inactive) | 26.5 µM (inactive) | – | 27.5 µM (inactive) | 3.06 µM (inactive) | 17.1 µM (inactive) | 30.4 µM (inactive) | –
COc1ccc(C(OCC2OC3(COC(c4ccccc4)(c4ccc(OC)cc4)c4ccc(OC)cc4)C(Oc4nc(=O)ccn43)C2O)(c2ccccc2)c2ccc(OC)cc2)cc1 (stereo not given) | > 100 µM (inactive) | > 100 µM (inactive) | – | > 100 µM (inactive) | > 100 µM (inactive) | > 100 µM (inactive) | – | > 100 µM (inactive) | > 100 µM (inactive) | > 100 µM (inactive) | > 100 µM (inactive) | > 100 µM (inactive) | > 100 µM (inactive) | > 100 µM (inactive) | > 100 µM (inactive) | 88.9 µM (inactive) | > 100 µM (inactive) | – | > 100 µM (inactive) | > 100 µM (inactive)

Source: ChEMBL document CHEMBL1201862, “PubChem BioAssay data set” (2004)
